In paper PMC7054845 (Journal of medicinal chemistry, 2019):

Test system: hMMP-12
Assay: hMMP-12 inhibition assay in diluted mouse plasma
Type: biochemical, human
Conditions: mouse plasma versus buffer

With `NC(=O)[C@H](CCC(=O)O)NC(=O)[C@H](CCC(=O)O)NC(=O)[C@H](Cc1cc(-c2ccc(-c3cccc(Cl)c3)cc2)no1)CP(=O)(O)c1ccc(Br)cc1` [RXP470.1] the “drop in affinity towards hMMP-12 in mouse plasma (factor)” value was 470.
